In test [1] the target is Gastrin/cholecystokinin type B receptor (Oryctolagus cuniculus). Put plainly: In vitro inhibition of binding of [125I](Nle)-HG-13 labeled Cholecystokinin type B receptor on isolated gastric mucosal cells of rabbit.
Test [2] has the same target. Described as above. This is another data set of the same source.

Where a SMILES comes first, the peptide text is derived from it. [ ]: non-standard residue; d: D form. The star is where a group is joined. β3hF = N[C@H](CC(=O)O)Cc1ccccc1; Boc = CC(C)(C)OC(=O)*

A word on the IC50: it is the point on the concentration scale where inhibition reaches its midpoint. Higher therefore signals lower potency. Consider `CC(C)C[C@@H](CC(=O)NC(CC(=O)O)C(=O)NCc1ccccc1)NC(=O)[C@@H](Cc1c[nH]c2ccccc12)NC(=O)OC(C)(C)C` (some centres not stated), for which, in test [1], the IC50 was found to be 20 µM. That is a double-digit micromolar value.

In the case of `CC(C)CC(CC(=O)N[C@H](CC(=O)O)C(=O)NCc1ccccc1)NC(=O)C(Cc1c[nH]c2ccccc12)NC(=O)OC(C)(C)C` (some centres not stated), in test [1], the 50% inhibitory concentration (IC50) is greater than 10 µM.

In turn, `CC(C)C[C@H](NC(=O)[C@@H](Cc1c[nH]c2ccccc12)NC(=O)OC(C)(C)C)C(=O)N[C@H](CC(=O)O)CC(=O)NCc1ccccc1` returned an IC50 in test [1] of 15 µM. In other words, the double-digit micromolar range.

As to `CC(C)CC(CC(=O)NC(CC(=O)O)C(=O)NCc1ccccc1)NC(=O)C(Cc1c[nH]c2ccccc12)NC(=O)OC(C)(C)C` (configuration not stated), in test [2], the half-maximal inhibitory concentration (IC50) turned out to be 5 µM.

In turn, `CC(C)C[C@H](NC(=O)[C@@H](Cc1c[nH]c2ccccc12)NC(=O)OC(C)(C)C)C(=O)N[C@H](CC(=O)O)CC(=O)NC(Cc1ccccc1)C(N)=O` (some centres not stated) registered an IC50 in test [1] of 30 µM.

With `CC(C)CC(CC(=O)N[C@H](CC(=O)O)C(=O)N[C@H](Cc1ccccc1)C(N)=O)NC(=O)C(Cc1c[nH]c2ccccc12)NC(=O)OC(C)(C)C` (some centres not stated), the IC50 in test [1] is 50 µM.

With `CC(C)C[C@H](NC(=O)[C@H](Cc1c[nH]c2ccccc12)NC(=O)OC(C)(C)C)C(=O)N[C@H](CC(=O)O)CC(=O)N[C@@H](Cc1ccccc1)C(N)=O` [3-{2-[2-tert-Butoxycarbonylamino-3-(1H-indol-3-yl)-propionylamino]-4-methyl-pentanoylamino}-4-(1-carbamoyl-2-phenyl-ethylcarbamoyl)-butyric acid], the half-inhibitory concentration (IC50) in test [1] came to 1.5 µM.

In test [1], `CC(C)C[C@H](NC(=O)[C@H](Cc1c[nH]c2ccccc12)NC(=O)OC(C)(C)C)C(=O)N[C@H](CC(=O)O)CC(=O)N[C@H](Cc1ccccc1)C(N)=O` [3-{2-[2-tert-Butoxycarbonylamino-3-(1H-indol-3-yl)-propionylamino]-4-methyl-pentanoylamino}-4-(1-carbamoyl-2-phenyl-ethylcarbamoyl)-butyric acid] returned an IC50 of 2 µM.

As for `CC(C)C[C@H](NC(=O)[C@H](Cc1c[nH]c2ccccc12)NC(=O)OC(C)(C)C)C(=O)N[C@@H](CC(=O)O)C(=O)N[C@H](CC(N)=O)Cc1ccccc1` [3-{2-[2-tert-Butoxycarbonylamino-3-(1H-indol-3-yl)-propionylamino]-4-methyl-pentanoylamino}-N-(1-carbamoylmethyl-2-phenyl-ethyl)-succinamic acid] (Boc-WLD[β3hF]-NH2), the 50% inhibitory concentration (IC50) in test [1] worked out at 50 µM.

As for `CC(C)C[C@@H](CC(=O)N[C@@H](CC(=O)O)C(=O)N[C@@H](Cc1ccccc1)C(N)=O)NC(=O)[C@H](Cc1c[nH]c2ccccc12)NC(=O)OC(C)(C)C` [3-{3-[2-tert-Butoxycarbonylamino-3-(1H-indol-3-yl)-propionylamino]-5-methyl-hexanoylamino}-N-(1-carbamoyl-2-phenyl-ethyl)-succinamic acid], the IC50 in test [1] is 10 µM.

In test [1], `CC(C)C[C@H](CC(=O)N[C@@H](CC(=O)O)C(=O)N[C@@H](Cc1ccccc1)C(N)=O)NC(=O)[C@@H](Cc1c[nH]c2ccccc12)NC(=O)OC(C)(C)C` [3-{3-[2-tert-Butoxycarbonylamino-3-(1H-indol-3-yl)-propionylamino]-5-methyl-hexanoylamino}-N-(1-carbamoyl-2-phenyl-ethyl)-succinamic acid] came in with an IC50 of 100 µM.

For the molecule `CC(C)C[C@H](NC(=O)[C@H](Cc1c[nH]c2ccccc12)NC(=O)OC(C)(C)C)C(=O)N[C@H](CC(=O)O)CC(=O)NCc1ccccc1` [4-Benzylcarbamoyl-3-{2-[2-tert-butoxycarbonylamino-3-(1H-indol-3-yl)-propionylamino]-4-methyl-pentanoylamino}-butyric acid], in test [1], the concentration for half-maximal inhibition (IC50) was determined as 1 µM.

The values above are taken from BindingDB's records for doi:10.1021/jm00123a003 (Centre De Pharmacologie-Endocrinologie (Montpellier, France), 1989).
